# Test results taken from patent US12534704B2, “Organ extracellular matrix-derived scaffold for culture and transplantation of organoid and method of preparing the same” (CELLARTGEN INC., priority 2020, dated 2026).
# Experiments:
# Format in all cases: cell-based
# [1] = system: mouse cholangiocyte-derived liver organoids (CLOs); test: Liver fibrosis model with mouse CLO
# Description: For disease modeling using an LEM-based liver organoid, TGF-beta was screened at each concentration and the possibility of inducing liver fibrosis was checked. A model was induced using mouse cholangiocyte-derived liver organoids (CLOs) cultured for 7 days. To construct a liver fibrosis model, the organoids were treated with TGF-β at each concentration for 48 hours and observed.
# [2] = system: human cholangiocyte-derived liver organoids (hCLOs); test: Liver fibrosis model with hCLO; conditions: hCLO in LEM, 3 days
# Description: Meanwhile, for disease modeling using human cholangiocyte-derived liver organoids (hCLOs) cultured in the LEM, TGF-β was tested at each concentration and the organoids were treated with the most appropriate concentration of TGF-β (80 ng/ml). Then, the possibility of inducing liver fibrosis was checked.
# To verify a liver fibrosis model, SMA (Smooth Muscle Actin) was used for staining to determine the accumulated extracellular matrix (ECM) around the organoids. Through this experiment, it was verified that a human liver fibrosis model can be constructed using a liver organoid cultured in the LEM scaffold (FIG. 79B).
# mouse lung organoid = test: Lung fibrosis model with mouse lung organoid
# Description: Specifically, lung organoids were treated for 3 days at respective concentrations on day 4 of culture and analyzed on day 7. A lung organoid that was not treated with TGF-β (NT, No treatment) was used as a control group.
# human lung organoid = test: Lung fibrosis model with human lung organoid
# Description: Specifically, human lung organoids cultured in respective scaffolds were treated with TGF-β for 3 days and then analyzed.
substance,measurement,setting,value
TGF-β,expression of liver fibrosis markers,"[1]; 4 ng/ml TGF-β, qPCR",highest
same,liver organoid morphology and growth,"[1]; TGF-β each concentration, 48 hours",changed in morphology and did not grow well
same,cholangiocyte marker expression,[1]; organoids cultured in LEM,significantly decreased
same,fibrosis marker expression,[1]; organoids cultured in LEM,greatly increased
same,liver organoid morphology and growth,[2],deformed in morphology and did not grow well
same,SMA and Col1 expression (immunostaining),mouse lung organoid,increase as the TGF-β treatment concentration increases
same,Col1a2 expression,mouse lung organoid; 40 ng/ml,increased statistically significantly
same,lung organoid shape and growth,"mouse lung organoid; TGF-β each concentration, 3 days",changed in shape and did not grow well
same,"SMA, COL1 and VIM expression (immunostaining)",human lung organoid; 3 days after treatment,increased
same,"ACTA2, COL1A2 and TNF-α expression","human lung organoid; 3 days, quantitative PCR",significantly increased
